# Measured values taken from US20070191476A1, “Antioxidant Components for Reduction of Nucleic Acid Damage in Companion Animals” (Mars, Incorporated, priority 2001, published 2007).
# How the values were obtained:
# feline leukocytes = tested on: feline leukocytes
# Protocol: (§1) All cats and dogs were housed at the Waltham Centre for Pet Nutrition, in conditions resembling those of pet cats and dogs, and were fed commercially available, complete diets throughout the study period. Fasted blood samples (5 ml) were drawn from the jugular vein of 12 healthy adult cats (7.2±4.8 years) and 12 healthy adult dogs (4.5±2.3 years) into lithium herparin vials and diluted 1:1 in PBS. Leukocytes were isolated over Histopaque 1083 gradients (Sigma, UK) by centrifugation at 1000 g for 40 minutes. Leukocytes were washed twice in 10 mls PBS and centrifuged at 700 g for 10 minutes before counting and storing at 1×10^6 cells/ml in 90% fetal calf serum (Sigma) and 10% dimethyl sulphoxide (Sigma) at −80° C. until required.
# (§2) DNA damage was induced in vitro by exposing the leukocytes to a range of H2O2 concentrations (0-250 μM diluted in PBSa) to determine the optimal level of H2O2 required to induce a significant increase in DNA damage above background endogenous DNA damage levels. Leukocytes were thawed rapidly in a 37° C. water bath, washed twice in PBSa, centrifuged at 700 g for 15 minutes and resuspended in PBSa at […]. Cells were re-suspended in 0 μM, 10 μM, 50 μM, 100 μM and 250 μM H2O2 in PBSa and incubated on ice for 5 minutes. Treated leukocytes were centrifuged at 700 g for 15 minutes at 4° C. ready for slide preparation.
# (§3) Two layers of agarose were prepared. For the first layer, 85 μl 1% (w/v) high-melting point (HMP) agarose (Sigma) prepared at 95° C. in PBSa was pipetted onto fully frosted microscope slides, covered with an 18×18 mm coverslip and allowed to set at 4° C. for 10 minutes. Untreated and hydrogen peroxide-treated leukocytes were washed twice in PBS, centrifuged at 700 g for 15 minutes and resuspended at 2×10^5 in 85 μl 1% (w/v) low melting point (LMP) agarose (Sigma). The cell suspension was then pipetted over the set HMP agarose layer, covered with an 18×18 mm coverslip and allowed to set at 4° C. for 10 minutes. After the coverslips were removed, the slides were immersed in freshly prepared cold lysis solution.
# canine leukocytes = tested on: canine leukocytes
# Protocol: as §1, §2, §3
# [1] = 10-250 μM H2O2, 5 minutes, p<0.001
compound,measurement,setting,value
"OO [H2O2, hydrogen peroxide]",DNA damage in relation to all other concentrations of H2O2,"feline leukocytes; 250 μM H2O2, FIG. 1",significant increases in DNA damage
same,DNA damage (visual comet score) versus untreated samples,feline leukocytes; [1],Statistically significant increases in DNA damage
same,DNA damage in relation to all other concentrations of H2O2,"canine leukocytes; 250 μM H2O2, FIG. 2",significant increases in DNA damage
same,DNA damage (visual comet score) versus untreated samples,canine leukocytes; [1],Statistically significant increases in DNA damage
